In patent US7741327B2 (Hoffmann-La Roche Inc., priority 2008, dated 2010):

Key:
[1] = target: T1, Recombinant human liver GK1 (GST-GK) (Homo sapiens, UniProt P35557); test: In vitro glucokinase activity (G6PDH-coupled NADH assay); format: biochemical; settings: 30° C., 5 mM D-glucose, 10% DMSO
T1 construct: made in house; host or cells: E. coli
T1 sequence (P35557 1-466 isoform P35557-2): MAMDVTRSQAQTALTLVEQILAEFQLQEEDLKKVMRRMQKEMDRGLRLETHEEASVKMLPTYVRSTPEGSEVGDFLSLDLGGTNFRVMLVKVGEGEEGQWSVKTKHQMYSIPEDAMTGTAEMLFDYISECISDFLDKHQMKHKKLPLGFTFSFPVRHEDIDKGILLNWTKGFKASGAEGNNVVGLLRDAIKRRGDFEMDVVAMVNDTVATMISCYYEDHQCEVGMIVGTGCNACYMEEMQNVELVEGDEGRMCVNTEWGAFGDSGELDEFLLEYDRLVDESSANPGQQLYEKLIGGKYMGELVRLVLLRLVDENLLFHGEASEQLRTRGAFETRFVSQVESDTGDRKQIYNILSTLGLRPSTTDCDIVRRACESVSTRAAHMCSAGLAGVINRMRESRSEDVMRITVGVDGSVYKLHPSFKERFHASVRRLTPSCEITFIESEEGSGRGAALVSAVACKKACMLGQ
How it was run: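 GST-tagged human liver GK1 from E. coli, assayed at 30° C in 25 mM Hepes pH 7.1 with 5 mM D-glucose, 1 mM ATP, 1.8 mM NAD and G6PDH coupling, 10% DMSO final; reaction started with enzyme after 10 min preincubation. NADH formation followed at OD340; SC1.5 is activator concentration giving 50% increase over DMSO control rate.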

C57B6 mice = test: Glucokinase activator in vivo screen: blood glucose lowering in mice after oral dosing; settings: Mus musculus, vs control, read-out: % gluc lowering @ 4 H
Method: Glucokinase Activator in vivo Screen Protocol in Lean and Diet Induced Obese Mice: Lean or Diet-Induced Obese (DIO) C57BL/6J mice were orally dosed via gavage with Glucokinase (GK) activator following a two hour fasting period. Blood glucose determinations were made at various (e.g. 0, 1, 2, 4 and 8 h post-oral gavage) times during the study.
C57Bl/6J mice were obtained from Jackson Laboratory (Bar Harbor, Me.) and were maintained in a light-dark cycle with lights on from 0600-1800 hr. For studies in lean mice, the mice were received at age ten weeks and given ad libitum access to control diet (LabDiet 5001 chow, PMI Nutrition, Brentwood, Mo.), and were at least age 11 weeks at the time of study. For studies in the DIO model, the mice were received at age five weeks and given ad libitum access to Bio-Serv F3282 High Fat Diet (Frenchtown, N.J.), and were at least age 16 weeks at the time of study. The experiments were conducted during the light phase of the light-dark cycle. Mice (n=6) are weighed and fasted for a two hour period prior to oral treatment. GK activators are formulated in Gelucire vehicle (Ethanol:Gelucire44/14:PEG400q.s. 4:66:30 v/w/v. For studies in lean mice, the mice were dosed orally with 5.0 μL per gram of body weight (i.e. 5 ml/kg×10.0 mg/ml formulation to equal a 50 mg/kg dose). For studies in DIO mice, the mice were dosed orally with 5.0 μL per gram of body weight (i.e. 5.0 ml/kg×5 mg/ml formulation to equal a 25 mg/kg dose). Immediately prior to dosing, a pre-dose (time zero) blood glucose reading was acquired by snipping off a small portion of the animal's tail and collecting 15 μL blood into a heparinized capillary tube for analysis. Following GK activator administration, additional blood glucose readings were taken at various time points post dose from the same tail wound. Results were interpreted by comparing the mean blood glucose values of vehicle treated mice with GK activator treated mice over the study period.
The Table below provides data for % glucose lowering of a representative number of compounds of the present invention vs control at 4 h post 25 or 30 mg/kg dose in C57B6 mice: […]

| SC1.5 (concentration of activator that produced a 50% increase in the activity of GK) [1] [µM] | Compound | change in vivo at 25 mg/kg (C57B6 mice; 4 h post 25 mg/kg oral dose) [%] | change in vivo at 30 mg/kg (C57B6 mice; 4 h post 30 mg/kg oral dose) [%] |
| --- | --- | --- | --- |
| 0.366 | CC(C)(O)Cn1ccc(NC(=O)[C@H](CC2CCCC2)N2CC(OC3CCCCC3)=CC2=O)n1 [Example 17, (S)-3-Cyclopentyl-N-[1-(2-hydroxy-2-methyl-propyl)-1H-pyrazol-3-yl]-2-(4-cyclohexyloxy-2-oxo-2,5-dihydro-pyrrol-1-yl)-propionamide] | -35.8 |  |
| 0.118 | CC(C)C[C@@H](C(=O)Nc1ccn(C[C@@H](O)CO)n1)N1CC(Oc2ccccc2Cl)=CC1=O [Example 66, (S)-2-[4-(2-Chloro-phenoxy)-2-oxo-2,5-dihydro-pyrrol-1-yl]-4-methyl-pentanoic acid [1-((R)-2,3-dihydroxy-propyl)-1H-pyrazol-3-yl]-amide] |  | -55.4 |
